According to article PMC7324608 (Scientific Reports, 2020):
Changes are numbered by the printed parent chain.

Tests used:
Test in all cases: thermal shift assay
Assay type in all cases: binding
Parameters in all cases: (HpHtrA, G18-K475, UniProt G2J5T2); GST (N, cleaved yes); made in house; host or cells: E. coli BL21
HpHtrA S166A = target: T1, HpHtrA S166A (Helicobacter pylori, UniProt G2J5T2, S166A)
T1 sequence (G2J5T2 18-475 S166A): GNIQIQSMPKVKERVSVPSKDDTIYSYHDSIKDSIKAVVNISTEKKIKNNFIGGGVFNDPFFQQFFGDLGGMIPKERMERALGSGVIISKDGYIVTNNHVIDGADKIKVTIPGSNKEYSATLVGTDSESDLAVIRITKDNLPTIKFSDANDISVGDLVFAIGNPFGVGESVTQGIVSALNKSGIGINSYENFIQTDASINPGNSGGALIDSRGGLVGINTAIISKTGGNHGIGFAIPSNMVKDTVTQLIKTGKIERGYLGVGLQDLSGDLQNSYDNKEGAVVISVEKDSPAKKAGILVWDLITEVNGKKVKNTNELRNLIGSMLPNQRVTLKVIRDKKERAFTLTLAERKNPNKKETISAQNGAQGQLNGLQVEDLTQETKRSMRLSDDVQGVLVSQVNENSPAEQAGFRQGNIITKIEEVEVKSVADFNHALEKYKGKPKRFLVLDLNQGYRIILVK
Experimental: (§1) Recombinant HpHtrA proteins (wt, S164A, D165A, S166A, D168A) in 50 mM HEPES buffer (pH 7.4) were mixed with SYPRO Orange (Sigma-Aldrich, Vienna, Austria) to final concentrations of 4 µM HpHtrA and 7 × SYPRO Orange in a 96-well PCR plate. […] Fluorescence data was collected using an Applied Bioscience StepOne Plus PCR cycler (Thermo Fisher Scientific, Schwerte, Germany) during a temperature ramp from 25–95 °C (0.5 °C per min) with a 4 min hold at 25 °C and 95 °C. SYPRO Orange binds to exposed hydrophobic regions within the denatured HpHtrA proteins, which increases the fluorescence of the dye[57],[58]. The fluorescence emission signal can then be used to determine the melting temperature of the protein, which is located at the infliction point of the fluorescence signal curve. The experiment was performed in triplicates.

HpHtrA D165A = target: T2, HpHtrA D165A (Helicobacter pylori, UniProt G2J5T2, D165A)
T2 sequence (G2J5T2 18-475 D165A): T1 sequence (G2J5T2 18-475 S166A) with D148A, A149S
Experimental: as §1

HpHtrA wt = target: T3, HpHtrA wt (Helicobacter pylori, UniProt G2J5T2)
T3 sequence (G2J5T2 18-475): T1 sequence (G2J5T2 18-475 S166A) with A149S
Experimental: as §1

HpHtrA D168A = target: T4, HpHtrA D168A (Helicobacter pylori, UniProt G2J5T2, D168A)
T4 sequence (G2J5T2 18-475 D168A): T1 sequence (G2J5T2 18-475 S166A) with A149S, D151A
Experimental: as §1

[1] = low/increasing concentrations of ion

Compound	thermal destabilization (ΔTm) (HpHtrA S166A; compared with wt and S164A)	thermal destabilization (ΔTm) (HpHtrA D165A; compared with wt and S164A)	thermal destabilization (ΔTm) (HpHtrA wt; HpHtrA wt, higher concentrations of ion)	thermal stabilization (ΔTm) (HpHtrA wt; HpHtrA wt, low concentrations of ion)	thermal destabilization (ΔTm) (HpHtrA D168A; compared with wt and S164A)	thermal stabilization (ΔTm) (HpHtrA S166A; [1])	thermal stabilization (ΔTm) (HpHtrA D165A; [1])	concentration at which HpHtrA wt was stabilized (HpHtrA wt; 4 µM HpHtrA wt, SYPRO Orange, 25–95 °C)	thermal stabilization (ΔTm) (HpHtrA D168A; [1])
[Cu+2] [Cu^++, CuCl2]	more strongly destabilized	more strongly destabilized	destabilized	stabilized	more strongly destabilized				
[Zn+2] [Zn^++, ZnCl2]						did not stabilize	did not stabilize	approximately 10 µM	did not stabilize
